From ChEMBL document CHEMBL1136946, “The regulation of inflammatory cytokine secretion in macrophage cell line by the chemical constituents of Rhus sylvestris” (Bioorg Med Chem Lett, 2009) come the findings set out here.

The test system of one assay is SK-MEL-1. As to the kind of experiment: Cytotoxicity against human SK-MEL-1 cells by MTT assay. It is filed as functional, cell-based.
For a further assay, the system named is MCF7. As to the kind of experiment: Cytotoxicity against human MCF7 cells by MTT assay. In kind it is functional, cell-based.
A further assay concerns HeLa. As to the kind of experiment: Cytotoxicity against human HeLa cells by MTT assay. It is filed as functional, cell-based.
The test system of assay [1] is RAW264.7. As to the kind of experiment: Antiinflammatory activity in mouse RAW264.7 cells assessed as inhibition LPS-induced TNFalpha secretion at 0.01 uM after 12 hrs. It is filed as functional. Conditions: RAW264.7, 12 h.
Assay [2] relates to RAW264.7. As to the kind of experiment: Antiinflammatory activity in mouse RAW264.7 cells assessed as inhibition LPS-induced IL6 secretion at 1 uM after 12 hrs. To be noted: for inhibition at 1 µM: RAW264.7, 12 h. In kind it is functional.
Assay [3] has as its system RAW264.7. In words: Antiinflammatory activity in mouse RAW264.7 cells assessed as inhibition LPS-induced TNFalpha secretion at 1 uM after 12 hrs. It is filed as functional. Conditions: RAW264.7, 12 h.

Calls of active or inactive are those of the source. The calls are words filed in the database; no cut-off is given here. A value given as a limit tells only on which side of the number the result lay.

On to `CC(=O)O[C@H]1CC[C@]2(C)[C@H]3CC=C4[C@@H]5CC(C)(C)CC[C@]5(C)CC[C@@]4(C)[C@]3(C)CC[C@H]2C1(C)C` [beta-AMYRIN ACETATE], for which the IC50 – broadly, the concentration that inhibits the measured activity by half – with SK-MEL-1 was over 50 µM; in the assay with MCF7, 26.7 µM; in the assay with HeLa, over 50 µM. Moreover, in the assay with RAW264.7 [1], the inhibition (commonly how much of the control response was suppressed) at 0.01 µM was determined as 20.9%. For the same compound, the outcome in the assay with RAW264.7 [2] was inactive.

For the compound `CC1(C)CC[C@]2(C)CC[C@]3(C)[C@H]4CC=C5[C@@H](CC[C@H](O)C5(C)C)[C@]4(C)CC[C@@]3(C)[C@@H]2C1` [GLUTINOL], the IC50 with SK-MEL-1, in the assay on MCF7 and in the assay with HeLa was over 50 µM throughout. Further, the inhibition at 0.01 µM with RAW264.7 [1] is 20.9%. Besides, the outcome in the assay on RAW264.7 [2] was inactive.

Turning to `CC(C)=CCC[C@@H](C)[C@H]1CC[C@@]2(C)[C@@H]3CC=C4[C@@H](CC[C@H](O)C4(C)C)[C@]3(C)CC[C@]12C`, the inhibition at 1 µM with RAW264.7 [3] is 80.9%. The IC50 with SK-MEL-1, in the assay with MCF7 and with HeLa was over 50 µM throughout.

Turning to `C=C(C)[C@@H]1CC[C@]2(C)CC[C@]3(C)[C@H](CC[C@@H]4[C@@]5(C)CC[C@H](O)C(C)(C)[C@@H]5CC[C@]43C)[C@@H]12` [LUPEOL], the half-maximal inhibitory concentration (IC50) with SK-MEL-1, with MCF7 and in the assay with HeLa was over 50 µM throughout.

As to `CC(C)=CCC[C@@H](C)[C@H]1CC[C@@]2(C)[C@H]3CC[C@H]4C(C)(C)C(=O)CC[C@@]45C[C@@]35CC[C@]12C`, the inhibition at 1 µM in the assay with RAW264.7 [3] worked out at 15.2%. Also, the IC50 in the assay with SK-MEL-1, with MCF7 and in the assay on HeLa was over 50 µM throughout. Also, the result in the assay on RAW264.7 [2] was inactive.

Regarding `CC1(C)CC[C@]2(C)CC[C@]3(C)C(=CC[C@@H]4[C@@]5(C)CC[C@H](O)C(C)(C)[C@@H]5CC[C@]43C)[C@@H]2C1` [beta-AMYRIN], the IC50 in the assay with SK-MEL-1, with MCF7 and in the assay with HeLa was over 50 µM in each case.

Take `COc1ccc(/C=C/C(=O)c2ccc(OC)cc2O)cc1`: the IC50 is 41.7 µM in the assay on SK-MEL-1, 45.4 µM with MCF7 and over 50 µM in the assay with HeLa. Further, in the assay with RAW264.7 [1], the inhibition at 0.01 µM came out at 20.9%. For the same compound, in the assay on RAW264.7 [2], the result was inactive.

On to `C=C(C)C(O)CC[C@@H](C)[C@H]1CC[C@@]2(C)[C@H]3CC[C@H]4C(C)(C)C(=O)CC[C@@]45C[C@@]35CC[C@]12C` (stereo not given in full), for which the IC50 with SK-MEL-1, in the assay with MCF7 and with HeLa was over 50 µM throughout. For the same compound, the inhibition at 0.01 µM in the assay on RAW264.7 [1] worked out at 20.9%. The inhibition at 1 µM in the assay with RAW264.7 [2] is 54.6%.

Take `CC[C@H](CC[C@@H](C)[C@H]1CC[C@H]2[C@@H]3CC=C4C[C@@H](O)CC[C@]4(C)[C@H]3CC[C@]12C)C(C)C` [BETA-SITOSTEROL]: the figures for the IC50 with SK-MEL-1, in the assay on MCF7 and with HeLa were over 50 µM, 42.1 µM and 46.2 µM, respectively. For the same compound, the inhibition at 0.01 µM in the assay on RAW264.7 [1] came to 20.9%. The inhibition at 1 µM in the assay with RAW264.7 [2] was found to be 54.5%.

Turning to `C=C(C)C(=O)CC[C@@H](C)[C@H]1CC[C@@]2(C)[C@H]3CC[C@H]4C(C)(C)C(=O)CC[C@@]45C[C@@]35CC[C@]12C`, the IC50 was 15.9 µM with SK-MEL-1, 30.9 µM with MCF7 and 24.8 µM with HeLa. Moreover, the inhibition at 0.01 µM in the assay with RAW264.7 [1] stood at 20.9%. Moreover, the outcome in the assay with RAW264.7 [2] was inactive.
